Data on three compounds can be found in patent US8673857B2, “Long term potentiation with cyclic-GluR6 analogs” (Brown University, priority 2009, dated 2014).

Entries after “also recorded” stand apart in the source; their conditions may differ. Starred links: 1 amine or outer side, 2 acyl side, 3 side chain; linkers in the order of their positions; H or OH if unused. Positions of bridges follow the written chain, without caps; N, C: chain ends. Residues, ends and D or L forms follow the SMILES beside them. Chains are numbered I, II in the order given. No end group written: not given here. X1 = O=C(CCN[*:2])[*:1]; βAla = NCCC(=O)O

Data set [1] has as its system NMDA receptor. In words: Whole cell patch recording of isolated NMDA EPSC, CA1 pyramidal neuron in hippocampal slices. To be noted: perfusion in presence of NBQX 5 μM and picrotoxin 50 μM, clamped at +40 mV, CN2097 2 μM, APV 50 μM. The source says: APV is a selective NMDA receptor antagonist.
(§1) CN 2097 is effective in synaptic plasticity and is able to lower the threshold for LTP induction, as shown FIG. 2. […] Without being bound by any particular theory, it is believed that CN 2097 acts through its ability to specifically interfere with NR2B activity and expression to change the sliding threshold for synaptic plasticity, altering the ratio of NR2A:NR2B. Similarly, antagonism of NR2B has been reported to lower the threshold for synaptic plasticity, such that LTP can be induced in response to a normally impotent stimulation with NMDA agonist. […] The cell voltage was clamped at +40 mV and synaptic responses were recorded.

Data set [2] deals with NR2B NMDAR subunit. The data set is described as follows: Electrophysiological and biochemical preliminary studies. From the text: (§2) Using Fmoc-based protocols, a series of peptide ligands were synthesized that complement the PDZ-binding domain of PSD-95 with the criteria of being membrane permeable, resistant to protease activity and biologically active. The peptide KNYKKTEV, which codes for the CRIPT PDZ-3 binding motif, was cyclized between the valine (V) and threonine (T) residues via beta-alanine linkage and either myristylated (CN2180) or linked to a poly-arginine tail (CN2097; FIG. 1) to enhance its diffusion and uptake capacity by neurons in intact tissues. Binding specificity of CN2180 was tested against a PDZ-domain array consisting of 96 distinct His-tagged PDZ domains purified and spotted on a gridded nylon membrane. […] CN 2097 acts as competitive ligand for this binding site and as such is able to disrupt the normal binding of NR2B receptors to the PSD. Also, it is believed that CN2097 disrupts NR2B downstream signaling by displacing signaling effectors attached directly or indirectly to the NR2B/PSD-95 signaling complex including CaMKII. […] Without being bound by any particular theory, this effect is believed due to the disruption of apoptotic and necrotic cell signaling pathways that propagate the cell death signal.

The test system of data set [3] is retinal ganglion cells. The data set is described as follows: NMDA-induced ganglion cell death in the rat retina, intravitreal injection. It counts as in vivo. How it is done:
Rat eyes were given an intravitreal injection containing 20 nmol of NMDA with 3 nmol CN2097 being co-administered or injected following NMDA insult at 1, 2 or 6 hrs. Retinal ganglion cell survival was assessed by counting fluorogold-labeled cells In an defined area (between 2 and 3 mm) from the center of the optic nerve head of each retina and compared with untreated (control) retinas.
Tests included 20 nmol NMDA vs 1.2 nmol CN2097/20 nmol NMDA.

Data set [4] concerns retina and hippocampus. In words: Excitotoxic studies with lethal doses of NMDA.
From the text: as §2

The test system of data set [5] is Schaffer Collateral-CA1 synapse. In words: Sub-threshold LTP induction at Schaffer Collateral-CA1 synapse (fEPSP). On the set-up: species or system adult Wistar rat. As to conditions: for LTP induction with sub-threshold protocol: CN2097 2 μM, low intensity 1 second 100 Hz HFS that normally fails to induce LTP.
From the text: It would normally induce no increase in baseline fEPSP responses (lower line).
as §1

A short description of data set [6]: Uptake into the brain post i.v. It is filed as in vivo. As to conditions: hippocampus, cerebellum, periventricular nucleus of the hypothalmus, deep cerebellar nuclei, sub-cortex, retina. The source says:
In addition uptake into the deep cerebellar nuclei, in the sub-cortex and the retina are noted.

Data set [7] can be described thus: Human plasma half-life. It counts as in vitro ADME.
In data set [8] the test system is mTOR, S6 and AKT expression pathways. The data set is described as follows: Western blots of in vivo injected retinas, SH-SY5Y neuroblastomas and primary cerebellar granule neurons. It counts as cell-based. From the text: Additionally, upregulation of CaMKII, an NMDAR-PSD-95 associated protein, is believed to be associated with synaptic plasticity. Biochemical analyses using western blots of in vivo injected retinas, cultured SH-SY5Y neuroblastomas and primary cultured mouse cerebellar granule neurons (CGN) was undertaken. Left and right eyes were given in vivo injections of phosphate buffered saline (PBS), NMDA, NMDA with CN 2097 and NMDA with CN5135, the retinas were then removed and lysed. CGNs were stimulated by a paradigm designed to mimic synaptic stimulation ([…] in ACSF) and SH-SY5Y cells were activated by nerve growth factor (NGF 50 ng/ml). […] Additionally CN2097 increased the expression CREB, which is also neuroprotective. Also observed were increases in levels of PSD-95.
CN2097 (2 μM) was tested after injection into eyes/retinas (lower left panel) applied to cell cultures for 5-30 minutes concurrently with either a synaptic stimulation and nerve growth factor (NGF) 50 ng/ml. CN2097 saw increased ERK, AKT1/2, p-S6K, p-S6, p-ERK, p-p38, p-CREB and PSD-95. Additionally, CN2097 (2 μM) inhibited p-JNK. CN2097S (szeto sequence used instead of Pol-Arginine) and CN5135 (2, 10 and […]), a structural analogue of CN2097 with disruptive alanine substitutions at the 0 and −2 ring positions (binding domain) were used a negative controls whilst tat-NR2B9c (TAT, 2 μM) was used as a positive control.
(A western blot detects proteins with antibodies after separation by electrophoresis.)

Data set [9] concerns PI3K and AKT signaling. In words: ACPD (mGluR1 agonist) signaling with CN2097 added. It is filed as cell-based. To be noted: CN2097 added to ACPD. As to the method: ACPD, an agonist of mGluR1, when CN2097 is added leads to an enhancement of PI3K and AKT signaling.
Data set [10] concerns AS mouse (Ube3am−/p+) hippocampal slices. The data set is described as follows: LTP in AS mouse (Ube3am-/p+) hippocampal slice, three trains of HFS. As to conditions: CN2097 2 μM superfused 20-50 minutes, three trains of HFS 10 seconds apart at 40 minutes. How it is done:
Then CN2097 2 μM was superfused from 20-50 minutes. The arrow at 40 minutes indicates three trains of High Frequency Stimuli 10 seconds apart. The HFS is 100 pulses in 1 second with an interpulse interval of 10 ms, i.e. 100 Hz. […] In AS mice this stimulation is normally unable to induce LTP (FIG. 8.). At 90-100 minutes the averaged response was 159.8+/−1.1%, n=7.
(§3) Ube3a deficient (“AS”) mice were developed previously (Jiang, Y. H. et al. Mutation of the Angelman ubiquitin ligase in mice causes increased cytoplasmic p53 and deficits of contextual learning and long-term potentiation. Neuron 21, 799-811 (1998)), were obtained through the Jackson Laboratory. Mice were bred on a 129S7 background. To obtain heterozygous mice lacking the Ube3a gene maternally (m−/p+), we crossed a heterozygous female mouse (m−/p+) with a wild-type male mouse (m+/p+). Wild type (WT) littermates (m+/p+) were used as controls.

Data set [11] relates to WT mouse hippocampal slice. The data set is described as follows: LTP in WT mouse hippocampal slice, one sub-threshold HFS (fEPSP slope). As to the method:
FIG. 6 presents data from a WT mouse adult hippocampal slice. An arrow indicates the time point at which one sub-threshold High Frequency Stimuli (HFS, 100 pulse in 1 second every 10 ms, 100 Hz) was applied. The white box indicates the treatment with CN2097 2 μM.
as §3

For data set [12], the target named is T1, PDZ3 domain of PSD-95 (Homo sapiens, UniProt P78352).
T1 construct: His
In words: PDZ-domain array of 96 His-tagged PDZ domains. It counts as binding.
From the text: as §2

The target of data set [13] is T2, PDZ1-PDZ2 domains of PSD-95 (Homo sapiens, UniProt P78352).
T2 construct: His
In words: PDZ-domain array of 96 His-tagged PDZ domains. It is filed as binding.
From the text: as §2

For data set [14], the system named is PDZ domains of other MAGUKS, MUPP1, S-SCAM, Shank and spinophilin. In words: PDZ-domain array of 96 His-tagged PDZ domains. It counts as binding.
From the text: as §2

The term half-life denotes the time needed for the level to fall by half in the phase considered. High values mean slow loss, low ones fast loss.

T2 sequence (P78352 65-246 limits assumed): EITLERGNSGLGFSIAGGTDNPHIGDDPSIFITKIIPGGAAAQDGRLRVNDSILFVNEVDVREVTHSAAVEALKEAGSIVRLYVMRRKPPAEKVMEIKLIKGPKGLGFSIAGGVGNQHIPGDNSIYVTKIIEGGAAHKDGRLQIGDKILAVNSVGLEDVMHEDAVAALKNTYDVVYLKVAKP
T1 sequence (P78352 313-393 limits assumed): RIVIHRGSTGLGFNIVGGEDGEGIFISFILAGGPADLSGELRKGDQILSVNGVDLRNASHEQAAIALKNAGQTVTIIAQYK

For the compound `N[C@@H](CCCP(=O)(O)O)C(=O)O` [APV, reference compound], the “effect on pharmacologically isolated NMDA EPSC” value in data set [1] was “abolished the EPSC”.

Regarding `CC(C)[C@H](NC(=O)[C@@H]1CCC(=O)NCCC(=O)NCCCC[C@H](NC(=O)[C@H](CCCCN)NC(=O)[C@H](Cc2ccc(O)cc2)NC(=O)[C@H](CC(N)=O)NC(=O)[C@H](CCCCN)NC(=O)[C@@H](N)CSSC[C@H](N)C(=O)N[C@@H](CCCNC(=N)N)C(=O)N[C@@H](CCCNC(=N)N)C(=O)N[C@@H](CCCNC(=N)N)C(=O)N[C@@H](CCCNC(=N)N)C(=O)N[C@@H](CCCNC(=N)N)C(=O)N[C@@H](CCCNC(=N)N)C(=O)N[C@@H](CCCNC(=N)N)C(N)=O)C(=O)N[C@@H]([C@@H](C)O)C(=O)N1)C(=O)O` [CN2097] (I: H-CKNYKKTEV-OH / II: H-CRRRRRRR-NH2; disulfide I:1-II:1; linker I:6-I:8 via X1), in data set [2], the “specificity toward the NR2B NMDAR subunit” value is recorded as “demonstrates specificity”. Further, the “NMDA-induced TUNEL-labeling in the retina” value in data set [3] (20 nmol NMDA vs 1.2 nmol CN2097/20 nmol NMDA) is given as “blocked”. Also, the “ganglion cell death with post-treatment” value in [3] (20 nmol NMDA, 3 nmol CN2097 co-administered or injected 1, 2 or 6 hrs after NMDA) is on record as “neuroprotective effects”. The “NMDA-induced poly(ADP-ribosyl)ation-immunoreactivity (PAR-IR)” value in [3] (matched paired retinas, 20 nmol NMDA) is given as “dose dependent attenuation”. Besides, the “NMDA-induced ganglion cell loss, fluorogold retrograde labeling” value in data set [3] (viewed 14 days post insult) is listed as “provided protection”. Further, in [3] (vs time matched NMDA-treated retina), the “NMDA-induced loss of plasma membrane selectivity (LPMS; necrosis)” value was “blocked”. Further, the “effect on pharmacologically isolated NMDA EPSC” value in data set [1] was “lack of effect”; in data set [1] (listed as CN 2097), “does not act as an antagonist”. In addition, the “neuroprotection against lethal doses of NMDA” value in [4] was “neuroprotective”. In addition, in [5] (2 μM CN 2097, 1 second 100 Hz HFS), the “duration of induced LTP” value is recorded as “over 60 minutes”. The “LTP induction with sub-threshold protocol” value in [5] is “results in LTP induction”; in [5] (listed as CN 2097), “induced a significant LTP”. In addition, the “uptake into the brain” value in [6] is “uptake into the brain has also been noted”. This compound also had a half-life in data set [7] of around 48 min. Also, the “expression of CREB” value in data set [8] was “increased”. In addition, the “levels of PSD-95” value in data set [8] is “increases”. For the same compound, in data set [8] (2 μM), the p-JNK entry is reported as “inhibiting; also recorded: inhibited”. The “total protein expression and phosphorylation state of pro-survival signaling proteins (CamKII, ERK, AKT1/2, p-S6K, p-S6, p-ERK, p-p38, p-CREB, PSD-95)” value in data set [8] (2 μM, 5-30 minutes, with synaptic stimulation or NGF 50 ng/ml, or injected retinas) was “increases in both total protein expression and phosphorylation state; also recorded: increased”. Also, the “PI3K and AKT signaling with ACPD” value in data set [9] is listed as “enhancement”. In [10], the “LTP, averaged response at 90-100 minutes” value is listed as 159.8+/−1.1%. Besides, the “LTP, % of baseline fEPSP slope” value in [11] (2 μM treatment combined with one sub-threshold HFS (HFS1, 100 Hz)) is 187.2+/−1.034%. Also, in data set [11] (CN2097 2 μM, between 20 and 40 minutes, before HFS), the “effect of compound alone upon baseline responses” value was “no significant observed effect”.

“CN2180: peptide KNYKKTEV cyclized between valine and threonine via beta-alanine linkage, myristylated (bridge (positions not given here) via βAla; also: cyclized between valine and threonine via beta-alanine linkage, myristylated, site not given here)”: the “binding to PDZ3 domain of PSD-95” value in data set [12] is reported as “moderate binding”. In addition, the “binding specificity to PDZ1-PDZ2 domains of PSD-95” value in [13] is “high specificity”. In data set [14], the “binding to PDZ domains of other MAGUKS and other PDZ-containing proteins” value was “did not bind”.
